Tests used:
[1] = tested on: Calu6 cell line; experiment: Combination cell growth inhibition (Sytox Green, Loewe synergy), Calu6; format: cell-based, human; details: Example 18 with selumetinib, 6x6 dosing matrix 0-10 μmol/L, 3 days, Loewe model, average of three or more experiments
Excerpt: A549 is a human non small cell lung cancer line carrying an oncogenic mutation in the KRAS gene (G12S). H2122 is a human non small cell lung cancer line carrying an oncogenic mutation in the KRAS gene (G12C). H2009 is a human non small cell lung cancer line carrying an oncogenic mutation in the KRAS gene (G12A). Calu6 is a human non small cell lung cancer line carrying mutation in the KRAS ([…]) gene. All cell lines were obtained from the American Type Culture Collection.
All cell line were maintained at 37° C. and 5% CO2 in a humidified atmosphere and grown in RPMI-1640 growth media supplemented with 10% FBS and 2 mmol/L glutamine. […]
Cells were seeded in 384-well black, clear bottomed plates (Greiner Bio-One, Stonehouse, UK), cultured for 18-24 hours and treated with increasing concentrations of Example 18 and selumetinib (0-10 μmol/L) in a 6×6 dosing matrix. […] After 3 days of treatment, live cell number was determined using a Sytox Green endpoint as described previously (“Davies B R, Greenwood H, Dudley P, et al: Preclinical pharmacology of AZD5363, an inhibitor of AKT: Pharmacodynamics, antitumor activity, and correlation of monotherapy activity with genetic background. Mol Cancer Ther 11(4):873-87, 2012”). […] Cells were then permeabilised by the overnight addition of saponin (0.03% final concentration, diluted in TBS-EDTA buffer) and a total cell count measured. […]

[2] = molecular target: T1, ERK2 (Homo sapiens, UniProt P28482); experiment: ERK2 Rapidfire Mass Spectrometry Inhibition of Catalysis Assay; format: biochemical; details: 1.2 nM ERK2, 16 μM Erktide, 120 μM ATP (measured Km), 15 minute pre-incubation; read-out: ERK2 Mass Spectrometry Enzyme IC50
T1 construct: made in house
How it was run: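 In-house MEK-activated ERK2 (1.2 nM) in 50 mM Tris pH 7.5, 10 mM MgCl2, 0.1 mM EGTA, 10 mM DTT, 0.01% CHAPS; 12-point dose range 10–0.0000125 μM, 1% DMSO. Reaction 20 min at room temperature, formic acid quench; Erktide and phospho-Erktide measured by RapidFire mass spectrometry to give IC50.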

T1 sequence (P28482 whole entry): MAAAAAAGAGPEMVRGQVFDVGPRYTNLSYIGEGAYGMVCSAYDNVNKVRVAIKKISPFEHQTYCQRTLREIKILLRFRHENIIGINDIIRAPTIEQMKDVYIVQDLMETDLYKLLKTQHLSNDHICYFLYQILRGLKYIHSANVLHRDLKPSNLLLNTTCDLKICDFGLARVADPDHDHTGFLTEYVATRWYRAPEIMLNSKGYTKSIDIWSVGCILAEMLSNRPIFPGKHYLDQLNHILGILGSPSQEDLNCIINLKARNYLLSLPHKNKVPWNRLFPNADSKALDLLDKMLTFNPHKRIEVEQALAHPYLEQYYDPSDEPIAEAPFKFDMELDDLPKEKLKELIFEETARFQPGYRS

IC50 [2]: 0.6 nM
Compound: COC[C@H]1Cn2cc(-c3nc(Nc4ccnn4C)ncc3C)nc2C(=O)N1Cc1ccc(F)c(F)c1 [Example 18, (R)-7-(3,4-Difluorobenzyl)-6-(methoxymethyl)-2-(5-methyl-2-((1-methyl-1H-pyrazol-5-yl)amino)pyrimidin-4-yl)-6,7-dihydroimidazo[1,2-a]pyrazin-8(5H)-one]
Synergy score [1]: 3
